For assay [1], the target named is T1, Type-2 angiotensin II receptor (Homo sapiens, UniProt P50052).
T1 sequence (P50052 whole entry): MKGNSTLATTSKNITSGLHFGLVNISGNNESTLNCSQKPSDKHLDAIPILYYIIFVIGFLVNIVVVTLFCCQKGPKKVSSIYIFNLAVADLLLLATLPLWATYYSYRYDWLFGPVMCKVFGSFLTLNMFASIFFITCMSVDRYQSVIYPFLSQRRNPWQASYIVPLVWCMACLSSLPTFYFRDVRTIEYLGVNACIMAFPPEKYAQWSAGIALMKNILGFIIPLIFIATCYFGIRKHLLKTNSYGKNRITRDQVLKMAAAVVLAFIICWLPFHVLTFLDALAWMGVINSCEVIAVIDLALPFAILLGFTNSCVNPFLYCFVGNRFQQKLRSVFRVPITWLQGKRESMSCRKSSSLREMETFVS
In words: In vitro binding affinity of compound against angiotensin II AT-2 receptor.

Assay [2] deals with T2, Type-1 angiotensin II receptor (Homo sapiens, UniProt P30556).
T2 sequence (P30556 whole entry): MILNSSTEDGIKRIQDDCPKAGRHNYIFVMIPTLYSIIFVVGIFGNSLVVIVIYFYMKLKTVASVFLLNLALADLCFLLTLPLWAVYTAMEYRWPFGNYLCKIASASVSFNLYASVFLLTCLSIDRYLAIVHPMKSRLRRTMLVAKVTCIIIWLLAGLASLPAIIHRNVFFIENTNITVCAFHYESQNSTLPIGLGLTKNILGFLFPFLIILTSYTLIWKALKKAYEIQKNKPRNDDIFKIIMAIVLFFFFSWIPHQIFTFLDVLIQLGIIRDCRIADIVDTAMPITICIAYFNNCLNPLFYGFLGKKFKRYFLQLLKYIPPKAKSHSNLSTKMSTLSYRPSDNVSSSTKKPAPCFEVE
As to the kind of experiment: In vitro binding affinity of compound against Angiotensin II receptor, type 1.

The subject of assay [3] is Rattus norvegicus. As to the kind of experiment: Compound was tested for its antihypertensive activity after oral administration to renal hypertensive rats. It counts as functional.
Assay [4] deals with Rattus norvegicus. As to the kind of experiment: Compound was tested for its antihypertensive activity after intravenous administration to renal hypertensive rats. It counts as functional.

With `CCCc1nc(CN(Cc2ccccc2)C(=O)OCC(C)C)c(C(=O)O)n1Cc1ccc(-c2ccccc2-c2nn[nH]n2)cc1`, the IC50 in assay [1] was determined as 800 nM; in assay [2], 20 nM.

In the case of `CCCc1nc(CNC(=O)C(c2ccccc2)c2ccccc2)c(C(=O)O)n1Cc1ccc(-c2ccccc2-c2nn[nH]n2)cc1`, the 50% inhibitory concentration (IC50) is 600 nM in assay [1] and 10 nM in assay [2].

As for `CCCc1nc(CN2CCN(c3ccccn3)CC2)c(C(=O)O)n1Cc1ccc(-c2ccccc2-c2nn[nH]n2)cc1F`, the results for the IC50 in assay [1] and in assay [2] were 200 nM and 0.9 nM, respectively.

Take `CCCc1nc(C(=O)N2CCN(c3ccccn3)CC2)c(C(=O)O)n1Cc1ccc(-c2ccccc2-c2nnn[nH]2)cc1`: the IC50 in assay [1] is 700 nM; in assay [2] it was 2 nM. Moreover, the ED30 with Rattus norvegicus [3] was ~3 mg/kg; with Rattus norvegicus [4], 0.018 mg/kg.

In the case of `CCCCN(Cc1ccccc1)Cc1nc(CCC)n(Cc2ccc(-c3ccccc3-c3nnn[nH]3)cc2)c1C(=O)O`, the IC50 in assay [1] worked out at 90 nM; in assay [2] it was 3 nM. Moreover, the ED30 in the assay on Rattus norvegicus [3] worked out at 3 mg/kg; in the assay on Rattus norvegicus [4] it was 0.04 mg/kg.

For `CCCCN(Cc1nc(CCC)n(Cc2ccc(-c3ccccc3S(=O)(=O)NC(=O)CCC)cc2)c1C(=O)O)C(=O)CCC`, the IC50 in assay [1] is 90 nM; in assay [2], 2 nM. In addition, the ED30 in the assay on Rattus norvegicus [3] was 1.65 mg/kg; in the assay on Rattus norvegicus [4] it was 0.18 mg/kg.

`CCCc1nc(CN2CCN(c3ccc(F)cc3)CC2)c(C(=O)O)n1Cc1ccc(-c2ccccc2-c2nn[nH]n2)cc1`: the IC50 was 80 nM in assay [1] and 3 nM in assay [2].

Turning to `CCCc1nc(CN2CCN(c3ccccc3Cl)CC2)c(C(=O)O)n1Cc1ccc(-c2ccccc2-c2nnn[nH]2)cc1`, the IC50 in assay [1] came out at 600 nM; in assay [2], 2 nM.

Consider `CCCc1nc(CN(Cc2ccccc2)C(=O)OC(C)(C)C)c(C(=O)O)n1Cc1ccc(-c2ccccc2-c2nn[nH]n2)cc1`, for which the IC50 in assay [1] was determined as 1000 nM; in assay [2], 9 nM.

`CCCc1nc(CN2CCN(c3ccccc3OC)CC2)c(C(=O)O)n1Cc1ccc(-c2ccccc2-c2nnn[nH]2)cc1`: the IC50 in assay [1] came to 3000 nM; in assay [2] it was 2 nM.

For the compound `CCCCCC(=O)NS(=O)(=O)c1ccccc1-c1ccc(Cn2c(CCC)nc(CN3CCN(c4ccccn4)CC3)c2C(=O)O)cc1`, the IC50 in assay [1] was determined as 20 nM; in assay [2], 6 nM. The ED30 in the assay on Rattus norvegicus [3] was > 10 mg/kg; in the assay on Rattus norvegicus [4] it was 0.13 mg/kg.

For the compound `CCCc1nc(CN2CCN(c3ccccc3)CC2)c(C(=O)O)n1Cc1ccc(-c2ccccc2-c2nnn[nH]2)cc1`, the values for the IC50 in assay [1] and in assay [2] were 50 nM and 5 nM, respectively. Besides, the ED30 is > 3 mg/kg in the assay with Rattus norvegicus [3] and 0.004 mg/kg in the assay with Rattus norvegicus [4].

With `CCCCOC(=O)NS(=O)(=O)c1ccccc1-c1ccc(Cn2c(CCC)nc(CN3CCN(c4ccccn4)CC3)c2C(=O)O)cc1`, the IC50 in assay [1] is 90 nM; in assay [2], 6 nM.

Consider `CCCc1nc(CN2CCN(c3ccccn3)CC2)c(C(=O)O)n1Cc1ccc(-c2ccccc2-c2nn[nH]n2)cc1`, for which the figures for the 50% inhibitory concentration (IC50) in assay [1] and in assay [2] were 60 nM and 4.2 nM, respectively. Moreover, the figures for the ED30 in the assay on Rattus norvegicus [3] and in the assay with Rattus norvegicus [4] were > 3 mg/kg and 0.003 mg/kg, respectively.

As to `CCCc1nc(CN(CC(=O)O)C(=O)C(c2ccccc2)c2ccccc2)c(C(=O)O)n1Cc1ccc(-c2ccccc2-c2nn[nH]n2)cc1`, the IC50 in assay [1] worked out at 7000 nM; in assay [2], 100 nM.

For the compound `CCCc1nc(CN2CCN(c3ncccn3)CC2)c(C(=O)O)n1Cc1ccc(-c2ccccc2-c2nn[nH]n2)cc1`, the IC50 was determined as 80 nM in assay [1] and 2 nM in assay [2].

On to `CCCc1nc(CN2CCN(c3ccccc3)C[C@H]2Cc2ccccc2)c(C(=O)O)n1Cc1ccc(-c2ccccc2-c2nn[nH]n2)cc1`, for which the figures for the IC50 in assay [1] and in assay [2] were 1000 nM and 10 nM, respectively.

Turning to `CCCc1nc(CN2CCN(c3ccccc3)C[C@H]2C)c(C(=O)O)n1Cc1ccc(-c2ccccc2-c2nnn[nH]2)cc1`, the IC50 is 70 nM in assay [1] and 2 nM in assay [2].

In the case of `CCCc1nc(CN2CCN(C(=O)C3CC3)CC2)c(C(=O)O)n1Cc1ccc(-c2ccccc2-c2nnn[nH]2)cc1`, the IC50 was 6000 nM in assay [1] and 10 nM in assay [2].

For the compound `CCCc1nc(CN2CCN(c3ccccn3)CC2)c(C(=O)O)n1Cc1ccc(-c2ccccc2S(=O)(=O)NC(=O)C2CC2)cc1`, the concentration for half-maximal inhibition (IC50) worked out at 600 nM in assay [1] and 10 nM in assay [2].

Regarding `CCCc1nc(CN2CCN(c3ccccn3)CC2)c(C=O)n1Cc1ccc(-c2ccccc2-c2nn[nH]n2)cc1`, the IC50 in assay [1] was found to be 1000 nM; in assay [2], 2 nM.

`CCc1nc(CN2CCN(c3ccccn3)CC2)c(C(=O)O)n1Cc1ccc(-c2ccccc2-c2nnn[nH]2)cc1`: the IC50 turned out to be 500 nM in assay [1] and 20 nM in assay [2].

As to `CCCc1nc(CN2CCN(C(=O)C(c3ccccc3)c3ccccc3)CC2)c(C(=O)O)n1Cc1ccc(-c2ccccc2-c2nn[nH]n2)cc1`, the IC50 turned out to be 1000 nM in assay [1] and 10 nM in assay [2].

As for `CCCc1nc(CNC(=O)OC(C)(C)C)c(C(=O)O)n1Cc1ccc(-c2ccccc2-c2nn[nH]n2)cc1`, the IC50 is 4000 nM in assay [1] and 6 nM in assay [2].

Take `CCCc1nc(CN2CCC(c3ccccc3)CC2)c(C(=O)O)n1Cc1ccc(-c2ccccc2-c2nn[nH]n2)cc1`: the IC50 in assay [1] was determined as 400 nM; in assay [2], 2 nM.

For `CCCc1nc(CN2CCN(C(=O)c3ccccc3)CC2)c(C(=O)O)n1Cc1ccc(-c2ccccc2-c2nnn[nH]2)cc1`, the IC50 in assay [1] was > 10000 nM; in assay [2] it was 5 nM.

In the case of `CCCc1nc(CN(Cc2ccccc2)C(=O)c2ccccc2)c(C(=O)O)n1Cc1ccc(-c2ccccc2S(=O)(=O)NC(=O)OCC(C)C)cc1`, the IC50 in assay [1] amounted to 100 nM; in assay [2], 8 nM.

On to `CCCCCN(CCCCC)Cc1nc(CCC)n(Cc2ccc(-c3ccccc3-c3nnn[nH]3)cc2)c1C(=O)O`, for which the IC50 in assay [1] came out at 200 nM; in assay [2] it was 2 nM.

`CCCc1nc(CN2CCN(c3ccccn3)CC2)c(CO)n1Cc1ccc(-c2ccccc2-c2nn[nH]n2)cc1`: the figures for the IC50 in assay [1] and in assay [2] were > 10000 nM and 10 nM, respectively.

As to `CCCCc1nc(CN2CCN(c3ccccn3)CC2)c(C(=O)O)n1Cc1ccc(-c2ccccc2-c2nn[nH]n2)cc1`, the IC50 in assay [1] was 700 nM; in assay [2] it was 2 nM.

With `CCCc1nc(CN2CCN(c3ccccn3)CC2)c(C(=O)O)n1Cc1ccc(-c2ccccc2S(=O)(=O)NC(=O)c2ccccc2)cc1`, the IC50 in assay [1] was determined as 500 nM; in assay [2], 6 nM.

In the case of `CCCc1nc(CN(Cc2ccccc2)C(=O)Nc2ccccc2)c(C(=O)O)n1Cc1ccc(-c2ccccc2-c2nnn[nH]2)cc1`, the IC50 in assay [1] amounted to 300 nM; in assay [2] it was 2 nM.

In the case of `CCCc1nc(CN(Cc2ccccc2)C(=O)Cc2ccccc2)c(C(=O)O)n1Cc1ccc(-c2ccccc2-c2nn[nH]n2)cc1`, the values for the IC50 in assay [1] and in assay [2] were 400 nM and 20 nM, respectively.

With `CCCCc1nc(Cl)c(CO)n1Cc1ccc(-c2ccccc2-c2nnn[n-]2)cc1.[K+]` [LOSARTAN POTASSIUM], the ED30 in the assay with Rattus norvegicus [3] turned out to be 0.59 mg/kg; in the assay on Rattus norvegicus [4] it was 0.78 mg/kg.

These data come from ChEMBL document CHEMBL1127975, “Balanced angiotensin II receptor antagonists. II.1,2 4-aminomethyl- and acylaminomethylimidazoles” (Bioorg Med Chem Lett, 1994).
